Laboratory results taken from the kinase profiling compilation of Christmann-Franck et al. (2016).
Values joined by “and” are separate entries in the source; they are usually repeats but may differ in a detail not shown here. Equal values may be shown once.

Columns and labels:
Test in all cases: KINOMEscan competition binding
Conditions in all cases: compound 10.0 µM
[1] = target: ACVR2B (human) (UniProt Q13705)
[2] = target: BMPR1A (human) (UniProt P36894)
[3] = target: CDC2L2 (human) (UniProt Q9UQ88)
[4] = target: CDC42BPB (human) (UniProt Q9Y5S2)
[5] = target: CDK15 (human) (UniProt Q96Q40)
[6] = target: CDK8 (human) (UniProt P49336)
[7] = target: CDKL3 (human) (UniProt Q8IVW4)
[8] = target: CSNK1D (human) (UniProt P48730)
Sequence of CSNK1D (human) (P48730 whole entry, looked up): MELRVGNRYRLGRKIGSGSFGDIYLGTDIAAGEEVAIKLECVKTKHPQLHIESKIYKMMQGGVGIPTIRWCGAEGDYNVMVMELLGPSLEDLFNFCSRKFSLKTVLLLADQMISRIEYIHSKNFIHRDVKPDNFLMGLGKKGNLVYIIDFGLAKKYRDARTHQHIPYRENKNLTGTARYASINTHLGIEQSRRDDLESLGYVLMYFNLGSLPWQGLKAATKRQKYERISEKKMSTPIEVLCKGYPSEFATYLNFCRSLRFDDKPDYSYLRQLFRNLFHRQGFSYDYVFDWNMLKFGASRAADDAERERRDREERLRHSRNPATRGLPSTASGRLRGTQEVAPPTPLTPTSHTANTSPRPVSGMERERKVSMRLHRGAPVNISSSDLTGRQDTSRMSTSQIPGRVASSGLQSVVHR

[9] = target: CSNK1E (human) (UniProt P49674)
[10] = target: CSNK1G1 (human) (UniProt Q9HCP0)
[11] = target: CSNK1G3 (human) (UniProt Q9Y6M4)
[12] = target: DAPK2 (human) (UniProt Q9UIK4)
Sequence of DAPK2 (human) (Q9UIK4 whole entry, looked up): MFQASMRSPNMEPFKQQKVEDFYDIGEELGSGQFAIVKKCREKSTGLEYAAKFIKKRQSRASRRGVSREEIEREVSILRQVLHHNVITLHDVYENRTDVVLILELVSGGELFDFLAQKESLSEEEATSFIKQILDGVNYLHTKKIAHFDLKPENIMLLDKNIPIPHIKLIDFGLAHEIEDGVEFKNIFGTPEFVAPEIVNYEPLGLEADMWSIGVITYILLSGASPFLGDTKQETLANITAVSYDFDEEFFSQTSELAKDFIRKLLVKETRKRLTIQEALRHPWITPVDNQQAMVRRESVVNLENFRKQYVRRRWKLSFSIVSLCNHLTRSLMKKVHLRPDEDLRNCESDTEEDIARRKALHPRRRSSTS

[13] = target: DYRK2 (human) (UniProt Q92630)
[14] = target: EPHB6 (human) (UniProt O15197)
[15] = target: ERBB3 (human) (UniProt P21860)
[16] = target: FES (human) (UniProt P07332)
Sequence of FES (human) (P07332 whole entry, looked up): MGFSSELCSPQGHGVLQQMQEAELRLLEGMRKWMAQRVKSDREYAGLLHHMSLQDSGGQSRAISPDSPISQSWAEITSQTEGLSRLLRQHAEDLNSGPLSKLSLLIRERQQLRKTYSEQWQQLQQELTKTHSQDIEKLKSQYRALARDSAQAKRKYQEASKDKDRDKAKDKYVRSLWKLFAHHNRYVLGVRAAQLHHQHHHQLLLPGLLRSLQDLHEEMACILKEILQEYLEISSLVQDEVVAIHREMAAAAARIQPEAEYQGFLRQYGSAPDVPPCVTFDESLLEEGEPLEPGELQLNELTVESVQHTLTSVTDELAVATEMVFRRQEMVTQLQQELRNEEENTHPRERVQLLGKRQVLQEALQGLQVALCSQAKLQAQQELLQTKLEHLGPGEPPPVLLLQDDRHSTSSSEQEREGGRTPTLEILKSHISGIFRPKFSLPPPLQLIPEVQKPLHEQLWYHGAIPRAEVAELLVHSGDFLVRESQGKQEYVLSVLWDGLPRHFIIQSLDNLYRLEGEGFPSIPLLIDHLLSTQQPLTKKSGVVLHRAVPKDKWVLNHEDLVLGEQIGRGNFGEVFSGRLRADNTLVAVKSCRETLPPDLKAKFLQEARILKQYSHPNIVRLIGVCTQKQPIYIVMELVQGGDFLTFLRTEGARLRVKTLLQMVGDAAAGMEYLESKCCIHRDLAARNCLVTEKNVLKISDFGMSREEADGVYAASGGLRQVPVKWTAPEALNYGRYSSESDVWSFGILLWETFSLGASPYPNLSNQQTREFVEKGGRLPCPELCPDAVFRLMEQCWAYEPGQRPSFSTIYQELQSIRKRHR

[17] = target: FGFR2 (human) (UniProt P21802)
[18] = system: FGFR3 (human), P22607 [G697C]
[19] = target: FLT3 (human) (UniProt P36888)
Sequence of FLT3 (human) (P36888 whole entry, looked up): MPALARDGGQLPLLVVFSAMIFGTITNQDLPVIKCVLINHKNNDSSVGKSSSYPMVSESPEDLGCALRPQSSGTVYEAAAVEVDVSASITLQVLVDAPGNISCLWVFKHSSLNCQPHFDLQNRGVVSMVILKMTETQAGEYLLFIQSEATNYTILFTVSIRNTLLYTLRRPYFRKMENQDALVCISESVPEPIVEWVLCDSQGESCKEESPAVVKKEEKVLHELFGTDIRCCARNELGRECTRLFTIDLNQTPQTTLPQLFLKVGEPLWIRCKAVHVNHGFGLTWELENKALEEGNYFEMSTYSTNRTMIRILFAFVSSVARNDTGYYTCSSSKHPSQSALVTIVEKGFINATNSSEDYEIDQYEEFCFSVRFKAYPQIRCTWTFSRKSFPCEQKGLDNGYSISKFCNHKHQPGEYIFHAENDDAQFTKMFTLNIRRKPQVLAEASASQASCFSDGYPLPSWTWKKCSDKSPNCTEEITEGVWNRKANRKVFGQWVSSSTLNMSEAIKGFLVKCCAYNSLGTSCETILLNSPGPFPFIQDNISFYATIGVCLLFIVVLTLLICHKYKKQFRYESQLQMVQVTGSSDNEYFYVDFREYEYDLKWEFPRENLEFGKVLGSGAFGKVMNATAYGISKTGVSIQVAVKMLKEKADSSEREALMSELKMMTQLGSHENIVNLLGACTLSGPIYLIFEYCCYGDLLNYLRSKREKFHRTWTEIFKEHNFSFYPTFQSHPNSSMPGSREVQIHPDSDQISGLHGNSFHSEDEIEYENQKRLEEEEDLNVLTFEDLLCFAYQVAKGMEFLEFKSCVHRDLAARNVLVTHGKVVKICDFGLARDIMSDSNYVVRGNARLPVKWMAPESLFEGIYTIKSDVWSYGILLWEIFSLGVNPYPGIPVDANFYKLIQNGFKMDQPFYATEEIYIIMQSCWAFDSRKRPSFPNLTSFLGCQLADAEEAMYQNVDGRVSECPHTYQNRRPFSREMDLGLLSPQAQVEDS

[20] = target: IRAK3 (human) (UniProt Q9Y616)
[21] = target: JAK1 JH2 pseudokinase (human) (UniProt P23458)
[22] = target: MAP2K3 (human) (UniProt P46734)
[23] = target: MAP3K2 (human) (UniProt Q9Y2U5)
[24] = target: MELK (human) (UniProt Q14680)
[25] = target: MKNK2 (human) (UniProt Q9HBH9)
[26] = target: MST4 (human) (UniProt Q9P289)
[27] = target: OXSR1 (human) (UniProt O95747)
[28] = target: PAK7 (human) (UniProt Q9P286)
[29] = target: PDGFRB (human) (UniProt P09619)
[30] = target: PIK3CB (human) (UniProt P42338)
[31] = target: PIM1 (human) (UniProt P11309)
Sequence of PIM1 (human) (P11309 whole entry, looked up): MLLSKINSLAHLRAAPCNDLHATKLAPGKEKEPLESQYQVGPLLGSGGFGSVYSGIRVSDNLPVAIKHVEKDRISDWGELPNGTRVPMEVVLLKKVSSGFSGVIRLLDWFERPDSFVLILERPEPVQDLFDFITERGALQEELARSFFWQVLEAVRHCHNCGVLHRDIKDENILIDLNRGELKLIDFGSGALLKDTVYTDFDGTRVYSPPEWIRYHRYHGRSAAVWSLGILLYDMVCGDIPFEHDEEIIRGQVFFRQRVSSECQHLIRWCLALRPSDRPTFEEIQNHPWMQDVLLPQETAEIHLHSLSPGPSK

[32] = target: PRKACB (human) (UniProt P22694)
[33] = target: PRKCD (human) (UniProt Q05655)
Sequence of PRKCD (human) (Q05655 whole entry, looked up): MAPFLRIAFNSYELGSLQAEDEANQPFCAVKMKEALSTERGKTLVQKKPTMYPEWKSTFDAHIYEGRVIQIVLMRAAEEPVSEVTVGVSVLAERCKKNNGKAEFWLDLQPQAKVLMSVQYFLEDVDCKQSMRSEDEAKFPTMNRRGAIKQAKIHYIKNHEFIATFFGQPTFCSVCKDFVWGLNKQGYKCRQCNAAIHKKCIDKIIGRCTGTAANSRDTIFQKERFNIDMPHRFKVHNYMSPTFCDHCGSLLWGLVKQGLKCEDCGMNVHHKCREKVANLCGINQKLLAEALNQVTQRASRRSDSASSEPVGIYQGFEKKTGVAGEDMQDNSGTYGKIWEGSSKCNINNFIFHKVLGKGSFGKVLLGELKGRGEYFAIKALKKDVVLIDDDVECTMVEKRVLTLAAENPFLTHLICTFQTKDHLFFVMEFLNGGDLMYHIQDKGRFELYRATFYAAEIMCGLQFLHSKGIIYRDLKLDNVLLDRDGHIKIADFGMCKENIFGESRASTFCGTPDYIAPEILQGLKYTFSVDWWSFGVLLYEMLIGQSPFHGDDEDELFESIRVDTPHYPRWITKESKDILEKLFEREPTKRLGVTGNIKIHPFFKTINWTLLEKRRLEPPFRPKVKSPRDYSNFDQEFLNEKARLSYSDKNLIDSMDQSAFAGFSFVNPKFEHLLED

[34] = target: PTK6 (human) (UniProt Q13882)
[35] = target: RIOK2 (human) (UniProt Q9BVS4)
Sequence of RIOK2 (human) (Q9BVS4 whole entry, looked up): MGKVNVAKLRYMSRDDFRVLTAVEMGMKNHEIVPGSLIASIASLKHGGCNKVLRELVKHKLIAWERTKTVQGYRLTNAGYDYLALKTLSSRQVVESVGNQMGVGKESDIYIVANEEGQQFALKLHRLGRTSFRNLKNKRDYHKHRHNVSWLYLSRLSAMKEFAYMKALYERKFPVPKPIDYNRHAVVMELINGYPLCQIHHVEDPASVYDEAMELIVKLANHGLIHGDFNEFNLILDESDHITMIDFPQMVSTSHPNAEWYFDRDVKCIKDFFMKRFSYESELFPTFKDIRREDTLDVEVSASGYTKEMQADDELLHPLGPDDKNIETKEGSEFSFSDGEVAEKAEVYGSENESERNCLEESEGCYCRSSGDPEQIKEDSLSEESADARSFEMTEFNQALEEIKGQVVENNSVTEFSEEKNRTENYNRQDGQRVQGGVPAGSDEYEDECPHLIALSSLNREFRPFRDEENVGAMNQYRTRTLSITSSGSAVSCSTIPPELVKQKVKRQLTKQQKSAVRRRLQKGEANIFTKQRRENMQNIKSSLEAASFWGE

[36] = target: RIPK4 (human) (UniProt P57078)
[37] = target: RPS6KA3 KD1 (human) (UniProt P51812)
[38] = target: SYK (human) (UniProt P43405)
[39] = target: TNK1 (human) (UniProt Q13470)
[40] = target: TTK (human) (UniProt P33981)
Sequence of TTK (human) (P33981 whole entry, looked up): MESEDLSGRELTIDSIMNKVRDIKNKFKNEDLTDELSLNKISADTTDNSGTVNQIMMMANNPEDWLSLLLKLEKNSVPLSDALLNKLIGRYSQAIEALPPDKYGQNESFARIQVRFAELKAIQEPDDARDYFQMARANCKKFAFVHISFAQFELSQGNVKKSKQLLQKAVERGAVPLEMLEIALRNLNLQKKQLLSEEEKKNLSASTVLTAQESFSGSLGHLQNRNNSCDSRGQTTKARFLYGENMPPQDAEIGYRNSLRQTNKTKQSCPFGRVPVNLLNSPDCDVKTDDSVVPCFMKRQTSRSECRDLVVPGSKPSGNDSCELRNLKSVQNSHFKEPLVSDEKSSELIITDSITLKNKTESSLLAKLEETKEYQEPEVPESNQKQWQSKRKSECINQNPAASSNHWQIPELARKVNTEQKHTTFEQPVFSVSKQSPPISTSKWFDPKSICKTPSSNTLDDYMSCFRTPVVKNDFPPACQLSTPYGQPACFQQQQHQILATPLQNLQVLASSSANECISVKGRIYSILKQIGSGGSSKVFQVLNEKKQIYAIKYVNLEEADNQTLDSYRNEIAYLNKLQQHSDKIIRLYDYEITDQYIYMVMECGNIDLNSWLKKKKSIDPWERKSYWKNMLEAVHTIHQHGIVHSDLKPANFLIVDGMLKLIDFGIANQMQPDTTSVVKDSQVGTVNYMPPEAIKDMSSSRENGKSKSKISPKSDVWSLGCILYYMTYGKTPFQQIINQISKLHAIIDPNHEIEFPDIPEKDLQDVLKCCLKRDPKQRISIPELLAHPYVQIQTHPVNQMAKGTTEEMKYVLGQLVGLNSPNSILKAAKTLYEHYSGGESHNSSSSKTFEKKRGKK

Compound `CNC(=O)Nc1ccc(-c2nc(N3CC4CCC(C3)O4)c3cnn(C4CCC5(CC4)OCCO5)c3n2)cc1` has a kinase still bound, per cent of control [1] of 77%, a kinase still bound, per cent of control [2] of 93% and a kinase still bound, per cent of control [3] of 97%. The kinase still bound, per cent of control [4] was 100%, the kinase still bound, per cent of control [5] was 100% and the kinase still bound, per cent of control [6] was 100%. For the same compound, the kinase still bound, per cent of control [7] was 95%, the kinase still bound, per cent of control [8] was 92% and the kinase still bound, per cent of control [9] was 39%. It also gave a kinase still bound, per cent of control [10] of 54%, a kinase still bound, per cent of control [11] of 48% and a kinase still bound, per cent of control [12] of 100%. The kinase still bound, per cent of control [13] was 90%, the kinase still bound, per cent of control [14] was 83% and the kinase still bound, per cent of control [15] was 100%. For the same compound, the kinase still bound, per cent of control [16] was 100%, the kinase still bound, per cent of control [17] was 92% and the kinase still bound, per cent of control [18] was 74%. For the same compound, the kinase still bound, per cent of control [19] was 75% and 77%, the kinase still bound, per cent of control [20] was 100% and the kinase still bound, per cent of control [21] was 83%. It also gave a kinase still bound, per cent of control [22] of 89%, a kinase still bound, per cent of control [23] of 95% and a kinase still bound, per cent of control [24] of 92%. The kinase still bound, per cent of control [25] was 87%, the kinase still bound, per cent of control [26] was 70% and the kinase still bound, per cent of control [27] was 100%. The kinase still bound, per cent of control [28] was 100%, the kinase still bound, per cent of control [29] was 89% and the kinase still bound, per cent of control [30] was 46%. For the same compound, the kinase still bound, per cent of control [31] was 100%, the kinase still bound, per cent of control [32] was 87% and the kinase still bound, per cent of control [33] was 100%. It also gave a kinase still bound, per cent of control [34] of 55%, a kinase still bound, per cent of control [35] of 90% and a kinase still bound, per cent of control [36] of 98%. For the same compound, the kinase still bound, per cent of control [37] was 100%, the kinase still bound, per cent of control [38] was 100% and the kinase still bound, per cent of control [39] was 78%. The kinase still bound, per cent of control [40] was 100%.
